Laboratory results published in patent US20250368666A1, “INDAZOLE COMPOUNDS” (TYRA BIOSCIENCES, INC., priority 2022, published 2025).

Experiments:
[1] = system: MDA-MB-453 cell line (FGFR4-Y367C); assay: Cancer cell line cell viability assay (Cell Titer-Glo), 120 hr; format: cell-based; settings: Homo sapiens
Outline: (§1)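 Cells seeded at 5,000-20,000/well, incubated overnight, then treated with a 9-dose, 4-fold dilution series from 3 μM in triplicate at 37° C, 5% CO2. Viability read by Cell Titer-Glo 2.0 luminescence as percent of DMSO control; IC50 from 4-parameter variable-slope sigmoidal fit.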

[2] = system: HuH7 cell line (FGF19 amplification); assay: as above; format: cell-based; settings: Homo sapiens, Huh-7
Outline: as §1

FGFR1 = target: T1, FGFR1 (Homo sapiens, UniProt P11362); assay: Kinase binding assay (kinase-tagged T7 phage, affinity beads, qPCR), Kd; settings: read-out: FGFR1 (Kd nM)
T1 construct: made in house; host or cells: E. coli (BL21-derived), T7 phage
T1 sequence (P11362 22-822): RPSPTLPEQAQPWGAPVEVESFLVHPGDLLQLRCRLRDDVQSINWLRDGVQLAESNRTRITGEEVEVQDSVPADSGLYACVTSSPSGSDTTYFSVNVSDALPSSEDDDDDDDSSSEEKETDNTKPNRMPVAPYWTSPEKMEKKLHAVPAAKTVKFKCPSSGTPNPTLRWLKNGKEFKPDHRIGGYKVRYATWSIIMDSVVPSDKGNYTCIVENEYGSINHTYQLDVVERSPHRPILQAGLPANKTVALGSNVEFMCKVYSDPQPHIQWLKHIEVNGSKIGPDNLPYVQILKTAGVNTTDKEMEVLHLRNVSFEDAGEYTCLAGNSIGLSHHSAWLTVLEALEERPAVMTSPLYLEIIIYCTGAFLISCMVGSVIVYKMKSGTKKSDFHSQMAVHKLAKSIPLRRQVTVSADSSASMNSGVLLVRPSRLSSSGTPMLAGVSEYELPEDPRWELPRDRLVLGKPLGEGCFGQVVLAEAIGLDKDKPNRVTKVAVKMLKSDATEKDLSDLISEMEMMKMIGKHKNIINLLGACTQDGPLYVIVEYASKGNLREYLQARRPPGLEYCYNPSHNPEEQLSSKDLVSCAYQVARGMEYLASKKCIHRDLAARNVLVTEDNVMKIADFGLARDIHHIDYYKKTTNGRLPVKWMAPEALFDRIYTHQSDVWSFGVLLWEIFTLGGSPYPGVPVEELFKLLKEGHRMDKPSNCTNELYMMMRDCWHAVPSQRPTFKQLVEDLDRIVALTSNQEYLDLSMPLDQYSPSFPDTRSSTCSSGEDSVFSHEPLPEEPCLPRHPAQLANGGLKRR
Outline: (§2)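 Competition binding; kinase-tagged T7 phage lysate vs immobilised biotinylated ligand on streptavidin beads, 0.9% DMSO final. 11-pt 3-fold dilutions, 3 DMSO controls. qPCR of eluted kinase; Kd by Hill fit, slope −1.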

FGFR2 = target: T2, FGFR2 (Homo sapiens, UniProt P21802); assay: as above; settings: read-out: FGFR2 (Kd nM)
T2 construct: made in house; host or cells: E. coli (BL21-derived), T7 phage
T2 sequence (P21802 22-821): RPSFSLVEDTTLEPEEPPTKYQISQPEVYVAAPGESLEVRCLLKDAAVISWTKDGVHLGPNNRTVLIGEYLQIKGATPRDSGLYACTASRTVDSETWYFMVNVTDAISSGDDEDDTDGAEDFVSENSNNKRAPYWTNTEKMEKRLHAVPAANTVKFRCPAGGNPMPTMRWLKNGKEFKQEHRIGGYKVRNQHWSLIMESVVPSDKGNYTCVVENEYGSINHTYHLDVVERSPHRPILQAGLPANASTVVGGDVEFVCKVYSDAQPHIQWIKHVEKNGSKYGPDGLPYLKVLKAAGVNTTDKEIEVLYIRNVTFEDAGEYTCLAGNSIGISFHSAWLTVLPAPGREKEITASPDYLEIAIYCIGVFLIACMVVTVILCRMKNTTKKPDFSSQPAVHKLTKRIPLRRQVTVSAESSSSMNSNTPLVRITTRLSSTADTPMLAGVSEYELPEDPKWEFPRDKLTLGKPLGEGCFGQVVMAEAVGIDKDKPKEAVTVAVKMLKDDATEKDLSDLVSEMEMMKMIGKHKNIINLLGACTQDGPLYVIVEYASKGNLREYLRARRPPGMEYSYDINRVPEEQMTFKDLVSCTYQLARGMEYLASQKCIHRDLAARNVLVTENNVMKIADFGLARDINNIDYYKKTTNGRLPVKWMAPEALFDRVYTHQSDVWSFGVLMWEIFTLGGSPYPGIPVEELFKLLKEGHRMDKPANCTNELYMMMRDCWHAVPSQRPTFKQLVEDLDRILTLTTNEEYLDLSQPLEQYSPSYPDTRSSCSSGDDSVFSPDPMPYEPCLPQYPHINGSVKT
Outline: as §2

FGFR3 (V555M) = target: T3, FGFR3 (V555M) (Homo sapiens, UniProt P22607, V555M); assay: as above; settings: V555M mutant; read-out: FGFR3 (V555M) (Kd nM)
T3 construct: made in house; host or cells: E. coli (BL21-derived), T7 phage
T3 sequence (P22607 23-806 V555M): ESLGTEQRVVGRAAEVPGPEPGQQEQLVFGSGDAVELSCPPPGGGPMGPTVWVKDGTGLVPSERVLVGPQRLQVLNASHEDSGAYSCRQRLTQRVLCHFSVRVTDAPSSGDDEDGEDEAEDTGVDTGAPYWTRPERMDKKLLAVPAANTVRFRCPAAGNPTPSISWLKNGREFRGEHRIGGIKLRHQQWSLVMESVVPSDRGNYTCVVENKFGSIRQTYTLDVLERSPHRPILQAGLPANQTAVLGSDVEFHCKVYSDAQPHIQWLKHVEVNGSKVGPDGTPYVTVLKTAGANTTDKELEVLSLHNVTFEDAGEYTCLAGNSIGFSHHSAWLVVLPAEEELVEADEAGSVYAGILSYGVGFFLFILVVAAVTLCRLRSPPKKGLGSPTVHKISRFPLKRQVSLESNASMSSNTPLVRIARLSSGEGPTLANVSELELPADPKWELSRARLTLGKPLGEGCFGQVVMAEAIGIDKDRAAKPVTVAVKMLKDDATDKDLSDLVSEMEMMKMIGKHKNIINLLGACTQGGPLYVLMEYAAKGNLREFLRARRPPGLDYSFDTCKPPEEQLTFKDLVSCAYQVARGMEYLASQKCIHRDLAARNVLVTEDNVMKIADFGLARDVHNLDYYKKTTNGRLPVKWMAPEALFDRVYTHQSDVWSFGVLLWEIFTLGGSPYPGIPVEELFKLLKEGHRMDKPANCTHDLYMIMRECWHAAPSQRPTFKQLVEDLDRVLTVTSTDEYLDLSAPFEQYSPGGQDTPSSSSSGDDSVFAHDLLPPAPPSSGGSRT
Outline: as §2

FGFR3 = target: T4, FGFR3 (Homo sapiens, UniProt P22607); assay: as above; settings: read-out: FGFR3 (Kd nM)
T4 construct: made in house; host or cells: E. coli (BL21-derived), T7 phage
T4 sequence (P22607 23-806): as the sequence (P22607 23-806 V555M) above, with M533V counted along it
Outline: as §2

FGFR4 = target: T5, FGFR4 (Homo sapiens, UniProt P22455); assay: as above; settings: read-out: FGFR4 (Kd nM)
T5 construct: made in house; host or cells: E. coli (BL21-derived), T7 phage
T5 sequence (P22455 22-802): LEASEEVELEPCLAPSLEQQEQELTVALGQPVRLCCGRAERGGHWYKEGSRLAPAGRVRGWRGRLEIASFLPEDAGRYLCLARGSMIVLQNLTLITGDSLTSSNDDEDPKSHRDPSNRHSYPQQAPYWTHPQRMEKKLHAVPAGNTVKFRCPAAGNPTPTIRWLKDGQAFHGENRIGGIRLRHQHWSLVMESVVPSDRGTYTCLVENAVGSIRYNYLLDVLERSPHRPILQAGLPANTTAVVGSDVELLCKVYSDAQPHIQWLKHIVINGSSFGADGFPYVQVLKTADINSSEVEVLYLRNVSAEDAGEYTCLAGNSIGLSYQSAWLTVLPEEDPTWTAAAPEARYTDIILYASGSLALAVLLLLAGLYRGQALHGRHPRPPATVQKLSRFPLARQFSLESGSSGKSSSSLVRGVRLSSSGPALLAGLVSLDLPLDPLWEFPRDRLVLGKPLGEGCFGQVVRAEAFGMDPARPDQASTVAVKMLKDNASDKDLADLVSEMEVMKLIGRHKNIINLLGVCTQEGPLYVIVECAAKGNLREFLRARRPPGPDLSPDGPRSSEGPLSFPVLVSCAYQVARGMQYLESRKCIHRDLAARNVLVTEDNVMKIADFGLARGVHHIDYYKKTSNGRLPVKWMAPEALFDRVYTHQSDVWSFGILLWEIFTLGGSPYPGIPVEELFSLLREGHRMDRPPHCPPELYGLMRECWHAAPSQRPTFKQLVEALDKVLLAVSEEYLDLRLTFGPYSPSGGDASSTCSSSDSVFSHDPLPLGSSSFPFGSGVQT
Outline: as §2

[3] = system: KATO-III cell line (FGFR2 amplification); assay: Cancer cell line cell viability assay (Cell Titer-Glo), 72 hr; format: cell-based; settings: Homo sapiens, KATO III
Outline: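 Luminescent ATP read-out (Cell Titer-Glo 2.0) after compound exposure, normalised to DMSO-only wells. Dosing: 9 concentrations, 4-fold steps, top 3 μM, triplicates. IC50 derived by log(inhibitor) vs. response 4-parameter fit.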

[4] = system: KG-1 cell line (FGFR 1-fusion); assay: as above; format: cell-based; settings: Homo sapiens, KG-1, KG-1 cell line (FGFR1-fusion)
Outline: as §1

[5] = system: RT112/84 cell line (FGFR3-fusion); assay: as above; format: cell-based; settings: Homo sapiens, RT112/84, RT112/84 cell line (FGFR3-fusion)
Outline: as §1

IC50 [1] [nM] | IC50 [2] [nM] | Kd (FGFR1) [nM] | Kd (FGFR2) [nM] | Kd (FGFR3 (V555M)) [nM] | Kd (FGFR3) [nM] | Kd (FGFR4) [nM] | IC50 [3] [nM] | IC50 [4] [nM] | IC50 [5] [nM] | Structure (SMILES)
0.1 to 50 | 0.1 to 50 | 1 to 50 | 1 to 50 | 1 to 50 | 1 to 50 | 1 to 50 | 0.1 to 50 | 50 to 200 | 0.1 to 50 | C[C@@H](Oc1ccc2[nH]nc(-c3cnc(N4CC(C)(N5CCOCC5)C4)c(F)c3)c2c1)c1c(Cl)cncc1Cl [Example 80, (R)-4-(1-(5-(5-(1-(3,5-Dichloropyridin-4-yl)ethoxy)-1H-indazol-3-yl)-3-fluoropyridin-2-yl)-3-methylazetidin-3-yl)morpholine]
50 to 200 | 0.1 to 50 | 1 to 50 | 1 to 50 | 1 to 50 | 1 to 50 | 1 to 50 | 50 to 200 | 50 to 200 | 0.1 to 50 | CCCNC1(C)CN(c2ncc(-c3n[nH]c4ccc(O[C@H](C)c5c(Cl)cncc5Cl)cc34)cc2F)C1 [Example 142, 1-[5-[5-[(1R)-1-(3,5-dichloro-4-pyridyl)ethoxy]-1H-indazol-3-yl]-3-fluoro-2-pyridyl]-3-methyl-N-propyl-azetidin-3-amine]
0.1 to 50 | 0.1 to 50 | 1 to 50 | 1 to 50 | 1 to 50 | 1 to 50 | 1 to 50 | 50 to 200 | 50 to 200 | 0.1 to 50 | COc1cc2[nH]nc(-c3cnc(N4CC(C)(NCC(C)(C)O)C4)c(C#N)c3)c2cc1O[C@H](C)c1c(Cl)cncc1Cl [Example 55, (R)-5-(5-(1-(3,5-dichloropyridin-4-yl)ethoxy)-6-methoxy-1H-indazol-3-yl)-2-(3-((2-hydroxy-2-methylpropyl)amino)-3-methylazetidin-1-yl)nicotinonitrile]
0.1 to 50 | 0.1 to 50 | 1 to 50 | 1 to 50 | – | 1 to 50 | 1 to 50 | 0.1 to 50 | 50 to 200 | 0.1 to 50 | COc1cc2[nH]nc(-c3cnc(N4CC[C@](C)(N)C4)c(C#N)c3)c2cc1O[C@H](C)c1c(Cl)cncc1Cl [Example 367, 2-((S)-3-amino-3-methylpyrrolidin-1-yl)-5-(5-((R)-1-(3,5-dichloropyridin-4-yl)ethoxy)-6-methoxy-1H-indazol-3-yl)nicotinonitrile]
0.1 to 50 | 0.1 to 50 | 1 to 50 | 1 to 50 | 1 to 50 | 1 to 50 | 1 to 50 | 50 to 200 | 50 to 200 | 0.1 to 50 | COc1cc2[nH]nc(-c3cnc(N4CC(C)(NC(C)C)C4)c(C#N)c3)c2cc1O[C@H](C)c1c(Cl)cncc1Cl [Example 8, (R)-5-(5-(1-(3,5-Dichloropyridin-4-yl)ethoxy)-6-methoxy-1H-indazol-3-yl)-2-(3-(isopropylamino)-3-methylazetidin-1-yl)nicotinonitrile]
50 to 200 | 0.1 to 50 | 1 to 50 | 1 to 50 | 1 to 50 | 1 to 50 | 1 to 50 | 0.1 to 50 | 50 to 200 | 0.1 to 50 | C[C@@H](Oc1ccc2[nH]nc(-c3ccc(N4C[C@@H](CS(C)(=O)=O)[C@@H]4C)nc3)c2c1)c1c(Cl)cncc1Cl [Example 203, 5-((R)-1-(3,5-dichloropyridin-4-yl)ethoxy)-3-(6-((2S,3R)-2-methyl-3-((methyl-sulfonyl)meth-yl)azetidin-1-yl)pyridin-3-yl)-1H-indazole]
0.1 to 50 | 0.1 to 50 | 1 to 50 | 1 to 50 | 1 to 50 | 1 to 50 | 1 to 50 | 50 to 200 | 50 to 200 | 0.1 to 50 | COc1cc2[nH]nc(-c3cnc(N4CC(C)(NCC5CC5)C4)c(C#N)c3)c2cc1O[C@H](C)c1c(Cl)cncc1Cl [Example 14, 2-[3-(cyclopropylmethylamino)-3-methyl-azetidin-1-yl]-5-[5-[(1R)-1-(3,5-dichloro-4-pyridyl)ethoxy]-6-methoxy-1H-indazol-3-yl]pyridine-3-carbonitrile]
0.1 to 50 | 0.1 to 50 | 50 to 300 | 1 to 50 | 1 to 50 | 1 to 50 | 1 to 50 | 50 to 200 | > 1000 | 50 to 200 | C[C@@H](Oc1ccc2[nH]nc(-c3cnc(N4CC(C)(CP(C)(C)=O)C4)c(C#N)c3)c2c1)c1c(Cl)cncc1Cl [Example 6, (R)-5-(5-(1-(3,5-dichloropyridin-4-yl)ethoxy)-1H-indazol-3-yl)-2-(3-((dimethylphosphoryl)methyl)-3-methylazetidin-1-yl)nicotinonitrile]
0.1 to 50 | 0.1 to 50 | 1 to 50 | 1 to 50 | 1 to 50 | 1 to 50 | 1 to 50 | 50 to 200 | 200 to 1000 | 50 to 200 | COc1cc2[nH]nc(-c3cnc(N4CC(C)(CP(C)(C)=O)C4)c(C#N)c3)c2cc1O[C@H](C)c1c(Cl)cncc1Cl [Example 53, (R)-5-(5-(1-(3,5-Dichloropyridin-4-yl)ethoxy)-6-methoxy-1H-indazol-3-yl)-2-(3-((dimethylphosphoryl)methyl)-3-methylazetidin-1-yl)nicotinonitrile]
0.1 to 50 | 0.1 to 50 | 1 to 50 | 1 to 50 | – | 1 to 50 | 1 to 50 | 0.1 to 50 | 50 to 200 | 0.1 to 50 | COc1cc2[nH]nc(-c3cnc(N4CC[C@@](C)(N)C4)c(C#N)c3)c2cc1O[C@H](C)c1c(Cl)cncc1Cl [Example 369, 2-((R)-3-amino-3-methylpyrrolidin-1-yl)-5-(5-((R)-1-(3,5-dichloropyridin-4-yl)ethoxy)-6-methoxy-1H-indazol-3-yl)nicotinonitrile]
50 to 200 | 0.1 to 50 | 1 to 50 | 1 to 50 | 1 to 50 | 1 to 50 | 1 to 50 | 50 to 200 | 50 to 200 | 0.1 to 50 | CC[C@@H](C)NC1(C)CN(c2ncc(-c3n[nH]c4ccc(O[C@H](C)c5c(Cl)cncc5Cl)cc34)cc2F)C1 [Example 140, 1-[5-[5-[(1R)-1-(3,5-dichloro-4-pyridyl)ethoxy]-1H-indazol-3-yl]-3-fluoro-2-pyridyl]-3-methyl-N-[(1R)-1-methylpropyl]azetidin-3-amine]
0.1 to 50 | 0.1 to 50 | 1 to 50 | 1 to 50 | 1 to 50 | 1 to 50 | 1 to 50 | 50 to 200 | 50 to 200 | 0.1 to 50 | COc1cc2[nH]nc(-c3cnc(N4CC(C)(N5CCOCC5)C4)c(C#N)c3)c2cc1O[C@H](C)c1c(Cl)cncc1Cl [Example 16, (R)-5-(5-(1-(3,5-dichloropyridin-4-yl)ethoxy)-6-methoxy-1H-indazol-3-yl)-2-(3-methyl-3-morpholinoazetidin-1-yl)nicotinonitrile]
